Data on 21 molecules can be found in patent US5128331A, “Method for lowering plasma lipid levels or blood pressure” (priority 1988, dated 1992).

For this assay, the system named is mice of the OF1 strain. Description: Hypolipidemic activity: plasma cholesterol and plasma triglycerides in mice fed compound in chow. Format: in vivo. To be noted: for change in vivo at 180 mg/kg: Mus musculus, feed or water, 240 h; for hypocholesterolemic activity (in words) / hypotriglyceridemia (in words) / decreased plasma triglycerides by / hypocholesterolemic potency (plasma cholesterol change): 0.1% in chow. The method, then:
With the goal of finding new drugs which might be hypolipidemic, the new diphosphonates described in this patent application were administered orally to mice. This rodent species has plasma lipid level relatively close to man (generally greater than 150 mg/dl). For example, in mice receiving a normal diet the plasma cholesterol and triglyceride levels are in the range of 100 mg/dl, whereas for rat the comparative values are close to 50 mg/dl.
In every screening experiment, 30 mice of the OF1 strain weighing 25 to 35 g were divided into 5 groups of 6 animals each. Four groups received the compounds to be tested, or the reference drugs, the fifth group served as control. Compounds were dissolved in diethyl ether, and solution was added to the pelleted food and the ether was evaporated.
All compounds were tested at the final concentration of 0.1% in animal chow, equivalent to a daily intake of about 180 mg/kg. This diet was fed for 10 days, then after an overnight fasting the animals were sacrified by decapitation under ether anesthesia. Blood samples were collected in EDTA containing tubes.
Plasma cholesterol and plasma triglycerides were measured by enzymatic methods (Ames kit No. 6376 and No. 6630).

[1] abbreviates: read-out: Cholesterol (% control).
[2] abbreviates: read-out: Triglycerides (% control).
Setting [3] is: mice, 0.1% in animal chow (about 180 mg/kg daily), 10 days, Table 3, given as change from control, read-out: Cholesterol (% control).
[4] abbreviates: mice, 0.1% in animal chow (about 180 mg/kg daily), 10 days, Table 3, given as change from control, read-out: Triglycerides (% control).

Molecules are shown by their SMILES. Where two headings read alike, the source gives them in different places.

As to `CCOP(=O)(OCC)C(=CC=Cc1cc(C(C)(C)C)c(O)c(C(C)(C)C)c1)P(=O)(OCC)OCC` [Compound 43, Tetraethyl 4-(3,5-ditertiarybutyl-4-hydroxyphenyl)-1,3-butadienylidene-1,1-diphosphonate], the change in vivo at 180 mg/kg under setting [1] is -5% and the change in vivo at 180 mg/kg under setting [2] was -14%.
The like results for `CCOP(=O)(OCC)C(=Cc1cc(C(C)CC)c(O)c(C(C)CC)c1)P(=O)(OCC)OCC` (stereo not shown) [Compound 32] were, in that order, 8% and 9%.
With `CCCOP(=O)(OCCC)C(Cc1cc(C(C)(C)C)c(O)c(C(C)(C)C)c1)P(=O)(OCCC)OCCC` [Compound 23], the change in vivo at 180 mg/kg by setting is: under setting [1], -15%; under setting [2], -33%. Moreover, for the setting “mice, 10 days”, the “hypocholesterolemic activity (in words)” value was “hypocholesterolemic”. Also, the “hypotriglyceridemia (in words)” value (mice, 10 days) is listed as “significant hypotriglyceridemia”.
In the case of `CCOP(=O)(OCC)C(CC)(Cc1cc(C(C)(C)C)c(O)c(C(C)(C)C)c1)P(=O)(OCC)OCC` [Compound 21, Tetraethyl 1-(3,5-ditertiarybutyl-4-hydroxyphenyl)-butylidene-2,2-diphosphonate], the change in vivo at 180 mg/kg under setting [1] is -16%. In addition, the change in vivo at 180 mg/kg under setting [2] was -28%. Under “mice, 10 days”, the “hypocholesterolemic activity (in words)” value is on record as “hypocholesterolemic” and the “hypotriglyceridemia (in words)” value is given as “significant hypotriglyceridemia”.
Consider `COP(=O)(OC)C(Cc1cc(C(C)(C)C)c(O)c(C(C)(C)C)c1)P(=O)(OC)OC` [Compound 10, Tetramethyl 2-(3,5-ditertiarybutyl-4-hydroxyphenyl)-ethylidene-1,1-diphosphonate], for which the change in vivo at 180 mg/kg is -5% under setting [1] and -19% under setting [2].
On to `COP(=O)(OC)C(=Cc1cc(C(C)(C)C)c(O)c(C(C)(C)C)c1)P(=O)(OC)OC` [Compound 47], for which the change in vivo at 180 mg/kg under setting [1] is -31%. Besides, the change in vivo at 180 mg/kg under setting [2] was -45%. In addition, for the setting “mice, 10 days”, the “decreased plasma triglycerides by” value was “more than 44%”, the “hypocholesterolemic activity (in words)” value is “hypocholesterolemic” and the “hypotriglyceridemia (in words)” value was “significant hypotriglyceridemia”.
On to `CCOP(=O)(OCC)C(=Cc1cc(C)c(O)c(C(C)(C)C)c1)P(=O)(OCC)OCC` [Compound 30, Tetraethyl 2-(3-tertiarybutyl-4-hydroxy-5-methylphenyl)-ethenylidene-1,1-diphosphonate], for which the change in vivo at 180 mg/kg under setting [1] was 2%. The change in vivo at 180 mg/kg under setting [2] is -45%. Moreover, for the setting “mice, 10 days”, the “decreased plasma triglycerides by” value is given as “more than 44%” and the “hypotriglyceridemia (in words)” value was “significant hypotriglyceridemia”.
As for `CCOP(=O)(OCC)C(=Cc1ccc2c(c1)OCO2)P(=O)(OCC)OCC` [Compound 38, Tetraethyl 2(3,4-methylenedioxyphenyl)-ethenylidene-1,1-diphosphonate], the change in vivo at 180 mg/kg was -5% under setting [1] and -6% under setting [2].
Take `CCOP(=O)(OCC)C(=Cc1cc(OC)c(O)c(OC)c1)P(=O)(OCC)OCC` [Compound 37]: the change in vivo at 180 mg/kg under setting [1] is -16%. For the same molecule, under setting [2], the change in vivo at 180 mg/kg is -70%. For the setting “mice, 10 days”, the “decreased plasma triglycerides by” value was “more than 44%”, the “hypocholesterolemic activity (in words)” value was “hypocholesterolemic” and the “hypotriglyceridemia (in words)” value is “significant hypotriglyceridemia”.
`CCCOP(=O)(OCCC)C(=Cc1cc(C(C)(C)C)c(O)c(C(C)(C)C)c1)P(=O)(OCCC)OCCC` [Compound 48]: the change in vivo at 180 mg/kg is -21% under setting [3] and -36% under setting [4]. Moreover, the “hypocholesterolemic activity (in words)” value (mice, 10 days) is given as “hypocholesterolemic”. Moreover, where the note is “mice, 10 days”, the “hypotriglyceridemia (in words)” value is listed as “significant hypotriglyceridemia”.
In the case of `CCCCOP(=O)(OCCCC)C(=Cc1cc(C(C)(C)C)c(O)c(C(C)(C)C)c1)P(=O)(OCCCC)OCCCC` [Compound 35], the change in vivo at 180 mg/kg by setting is: under setting [3], 0%; under setting [4], 7%.
For `CCOP(=O)(OCC)C(Cc1cc(C(C)(C)C)c(O)c(C(C)(C)C)c1)P(=O)(N(C)C)N(C)C` (stereo not shown) [Compound 19, Diethyl 1-bis(dimethylamino)phosphinyl-2-(3,5-ditertiarybutyl-4-hydroxyphenyl)ethylphosphonate], the change in vivo at 180 mg/kg runs as follows: under setting [1], -6%; under setting [2], -44%. In addition, where the note is “mice, 10 days”, the “decreased plasma triglycerides by” value is given as “more than 44%”.
As to `CC(C)(C)c1cc(CC(P2(=O)OCCCO2)P2(=O)OCCCO2)cc(C(C)(C)C)c1O` [Compound 24], under setting [3], the change in vivo at 180 mg/kg was -20%. For the same molecule, the change in vivo at 180 mg/kg under setting [4] is -71%. Also, where the note is “mice, 10 days”, the “decreased plasma triglycerides by” value is listed as “more than 44%”, the “hypocholesterolemic activity (in words)” value was “hypocholesterolemic” and the “hypotriglyceridemia (in words)” value is given as “significant hypotriglyceridemia”.
`CCOP(=O)(OCC)C(Cc1cc2c(cc1Cl)OCO2)P(=O)(OCC)OCC` [Compound 13, Tetraethyl 2-(3,4-methylenedioxy-6-chlorophenyl)-ethylidene-1,1-diphosphonate]: the change in vivo at 180 mg/kg by setting is: under setting [1], -5%; under setting [2], 38%.
In the case of `CC(C)OP(=O)(OC(C)C)C(=Cc1cc(C(C)(C)C)c(O)c(C(C)(C)C)c1)P(=O)(OC(C)C)OC(C)C` [Compound 34], the change in vivo at 180 mg/kg under setting [3] is -41%. Also, the change in vivo at 180 mg/kg under setting [4] turned out to be 11%. Besides, for the setting “mice, 10 days”, the “hypocholesterolemic activity (in words)” value was “hypocholesterolemic” and the “hypocholesterolemic potency (plasma cholesterol change)” value is on record as -41%.
For the molecule `CCOC(=O)C(C)(C)Oc1ccc(Cl)cc1` [Clofibrate, reference compound], the change in vivo at 180 mg/kg is 4% under setting [3] and -5% under setting [4]. In addition, under “mice, 10 days”, the “hypocholesterolemic activity (in words)” value was “less hypocholesterolemic than many of the diphosphonates tested”.
In the case of `CCOP(=O)(OCC)C(Cc1cc(C(C)C)c(O)c(C(C)C)c1)P(=O)(OCC)OCC` [Compound 2], the change in vivo at 180 mg/kg runs as follows: under setting [1], 6%; under setting [2], -17%.
With `CC(C)OC(=O)C(C)(C)Oc1ccc(C(=O)c2ccc(Cl)cc2)cc1` [Fenofibrate, reference compound], under setting [3], the change in vivo at 180 mg/kg is -15%. Moreover, the change in vivo at 180 mg/kg under setting [4] is -2%. In addition, where the note is “mice, 10 days”, the “hypocholesterolemic activity (in words)” value is on record as “less hypocholesterolemic than many of the diphosphonates tested” and the “hypocholesterolemic potency (plasma cholesterol change)” value is recorded as -15%.
On to `CCOP(=O)(OCC)C(Sc1cc(C(C)(C)C)c(O)c(C(C)(C)C)c1)P(=O)(OCC)OCC` [Compound 5, Tetraethyl 3,5-ditertiary-4-hydroxyphenylthio-methylenediphosphonate], for which the change in vivo at 180 mg/kg under setting [1] is -22%. The change in vivo at 180 mg/kg under setting [2] is -24%. For the same molecule, where the note is “mice, 10 days”, the “hypocholesterolemic activity (in words)” value was “hypocholesterolemic” and the “hypotriglyceridemia (in words)” value is given as “significant hypotriglyceridemia”.
In the case of `CCOP(=O)(OCC)C(CCCCCCSc1cc(C(C)(C)C)c(O)c(C(C)(C)C)c1)P(=O)(OCC)OCC` [Compound 20, Tetraethyl 7-(3,5-ditertiarybutyl-4-hydroxyphenylthio)-heptylidene-1,1-diphosphonate], the change in vivo at 180 mg/kg under setting [1] was 5% and the change in vivo at 180 mg/kg under setting [2] worked out at 13%.
The like results for `CCOP(=O)(OCC)C(=Cc1ccc2c(c1)OCCO2)P(=O)(OCC)OCC` [Compound 39] were, in that order, 4% and 17%.
